Laboratory results reported in ChEMBL document CHEMBL1139085, “Synthesis and biological evaluation of fenobam analogs as mGlu5 receptor antagonists” (Bioorg Med Chem Lett, 2007).
Active and inactive are the calls of the source. The rule behind the calls is not given here.

Columns and labels:
Rattus norvegicus [1] = species: Rattus norvegicus; assay: Anxiolytic-like activity in rat assessed as reversal of foot shock-induced suppression of lever pressing by conditioned emotional response test; format: functional, organism-based
Rattus norvegicus [2] = assay: Anxiolytic-like activity in rat assessed as behavioral disruption at 3 to 30 mg/kg, po by conflict test; format: functional, organism-based
[3] = Metabolic stability in human liver microsomes; format: ADME, Microsome
[4] = molecular target: T1, Metabotropic glutamate receptor 5 (Homo sapiens, UniProt P41594); assay: Antagonist activity at mGluR5 by FLIPR; format: functional
T1 sequence (P41594 whole entry): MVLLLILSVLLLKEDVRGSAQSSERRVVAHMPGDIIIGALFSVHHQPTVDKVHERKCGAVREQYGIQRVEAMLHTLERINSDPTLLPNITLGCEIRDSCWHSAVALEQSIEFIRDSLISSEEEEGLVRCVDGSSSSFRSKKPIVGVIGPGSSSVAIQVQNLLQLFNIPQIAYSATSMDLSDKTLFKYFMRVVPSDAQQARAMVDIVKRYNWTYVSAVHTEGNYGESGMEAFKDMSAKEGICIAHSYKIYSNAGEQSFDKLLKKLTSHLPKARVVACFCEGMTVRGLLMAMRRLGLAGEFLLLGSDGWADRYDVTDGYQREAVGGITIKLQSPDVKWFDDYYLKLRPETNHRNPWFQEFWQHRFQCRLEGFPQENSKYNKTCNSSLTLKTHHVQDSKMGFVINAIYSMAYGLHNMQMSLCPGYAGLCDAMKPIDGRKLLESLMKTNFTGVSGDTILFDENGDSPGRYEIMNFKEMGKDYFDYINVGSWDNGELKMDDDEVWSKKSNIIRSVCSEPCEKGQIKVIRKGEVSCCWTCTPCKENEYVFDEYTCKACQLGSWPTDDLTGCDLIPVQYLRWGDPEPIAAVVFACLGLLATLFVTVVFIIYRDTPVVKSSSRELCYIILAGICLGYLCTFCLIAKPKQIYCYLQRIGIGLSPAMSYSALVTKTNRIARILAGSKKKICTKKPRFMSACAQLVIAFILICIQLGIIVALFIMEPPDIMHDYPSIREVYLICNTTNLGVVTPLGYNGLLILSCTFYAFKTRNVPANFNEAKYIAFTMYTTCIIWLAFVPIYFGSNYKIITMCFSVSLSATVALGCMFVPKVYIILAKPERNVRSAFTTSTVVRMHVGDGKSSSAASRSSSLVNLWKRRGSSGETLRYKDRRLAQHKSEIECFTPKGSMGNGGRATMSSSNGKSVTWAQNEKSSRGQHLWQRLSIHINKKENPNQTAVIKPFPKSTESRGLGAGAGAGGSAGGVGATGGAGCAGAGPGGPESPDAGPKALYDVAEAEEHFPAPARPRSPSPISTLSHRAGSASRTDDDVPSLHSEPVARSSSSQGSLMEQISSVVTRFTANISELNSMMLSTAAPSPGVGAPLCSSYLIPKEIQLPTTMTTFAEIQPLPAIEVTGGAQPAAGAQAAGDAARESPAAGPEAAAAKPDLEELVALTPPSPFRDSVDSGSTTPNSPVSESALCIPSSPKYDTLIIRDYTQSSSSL

Rattus norvegicus [5] = assay: Anxiolytic-like activity in rat assessed as behavioral disruption at 3 to 30 mg/kg, po by conditioned emotional response test; format: functional, organism-based
Rattus norvegicus [6] = species: Rattus norvegicus; assay: Anxiolytic-like activity in rat assessed as reversal of foot shock-induced suppression of lever pressing by conflict test; format: functional, organism-based
Rattus norvegicus [7] = assay: Anxiolytic-like activity in rat assessed as increase in drinking time at 30 mg/kg, po by Vogel conflict test; format: functional, organism-based; parameters: dose 30 mg/kg
[8] = molecular target: T1, Metabotropic glutamate receptor 5; assay: Displacement of [3H]MPEP from mGlu5 receptor
[9] = Metabolic stability in rat liver microsomes; format: ADME, Microsome

Row | SMILES | microsomal CLint [3] | IC50 [4] | IC50 [8] | microsomal CLint [9] | further results
1 | CN1CC(=O)N/C1=N\C(=O)Nc1csc(Cl)c1 | 55 µL/min/mg | 434 nM | 78 nM | 27 µL/min/mg | Activity (Rattus norvegicus [1]): Dose-dependent effect; Activity (Rattus norvegicus [2]): inactive; Activity (Rattus norvegicus [5]): inactive; Activity (Rattus norvegicus [6]): Dose-dependent effect; Activity (Rattus norvegicus [7]): Active
2 | Cc1cccc(C#Cc2ccccn2)n1 |  | 400 nM | 39 nM |  | 
3 | Cc1cccc(C#Cc2ccccc2Cl)n1 |  | 15 nM | 5 nM |  | 
4 | Cc1cccc(C#Cc2cccnc2)n1 |  | 66 nM | 10 nM |  | 
5 | Cc1cccc(C#Cc2cccc(Cl)c2)n1 |  | 7 nM | 3 nM |  | 
6 | CN1CC(=O)N=C1NC(=O)Nc1cccc(Cl)c1 [FENOBAM ANHYDROUS] | 100 µL/min/mg | 38 nM | 61 nM | 44 µL/min/mg | 
7 | Cc1cccc(C#Cc2ccc(Cl)cc2)n1 |  | 1020 nM | 286 nM |  | 
8 | Cc1cccc(C#Cc2ccncc2)n1 |  | 213 nM | 26 nM |  | 

Continued, in another order:

Row | microsomal CLint [3] | IC50 [4] | IC50 [8] | microsomal CLint [9] | SMILES | further results
9 | 47 µL/min/mg | 1100 nM | 587 nM | 22 µL/min/mg | CN1CC(=O)N/C1=N\C(=O)Nc1ccccn1 | 
10 | 11 µL/min/mg | > 5000 nM | 1120 nM | 9 µL/min/mg | CN1CC(=O)N/C1=N\C(=O)Nc1ccncc1 | 
11 |  | 3300 nM | 1360 nM |  | CN1CC(=O)N/C1=N\C(=O)Nc1ccccc1 | 
12 |  | 6800 nM | 2520 nM |  | CN1CC(=O)N/C1=N\C(=O)Nc1ccccc1Cl | 
13 |  | 4020 nM | 700 nM |  | CN1CC(=O)N/C1=N\C(=O)Nc1ccsc1 | 
14 |  | > 5000 nM | > 5000 nM |  | CN1CC(=O)N/C1=N\C(=O)Nc1ccc(Cl)cc1 | 
15 | 20 µL/min/mg | > 5000 nM | > 5000 nM | 5 µL/min/mg | CN1CC(=O)N/C1=N\C(=O)Nc1cccnc1 | 
